Data from US20090318449A1, “THERAPEUTIC LACTAMS” (ALLERGAN, INC., priority 2008, published 2009).

System: lashes and adjacent hairs of glaucoma patients
Assay: Eyelash/hair growth observed in glaucoma patients treated in one eye
Format: in vivo, humans
Settings: glaucoma patients treated in only one eye
Excerpt: In the course of treating patients having glaucoma, treatment may only be appropriate in one eye. […] The lash appearance on the lids of the treated eyes would have appeared quite attractive if it represented a bilateral phenomenon. As a result of its asymmetric nature, the long lashes on one side could be construed as disturbing from a cosmetic standpoint. A systemic examination was preformed as a result of the asymmetric phenomenon. It soon became apparent that this altered appearance was not an isolated finding. […] Definite differences could be identified to varying degrees in the lashes and adjacent hairs of all patients who were taking the drug on a unilateral basis for longer than 6 months.
The changes in the lashes were apparent on gross inspection in several patients once attention was focused on the issue. In those with light colored hair and lashes, the differences were only seen easily with the aid of the high magnification and lighting capabilities of the slit lamp biomicroscope. In the course of glaucoma follow-up examination, attention is generally immediately focused on the eye itself. As a result of the high power magnification needed only one eye is seen at a time and the eye is seen at a high enough power that the lashes are not in focus. […]

CCNC(=O)CCC/C=C\C[C@@H]1[C@@H](/C=C/[C@@H](O)CCc2ccccc2)[C@H](O)C[C@@H]1O [bimatoprost]
lash appearance, treated eye versus non-treated eye: longer, thicker, and fuller
